In US20240246918A1, “COMPOUNDS AND COMPOSITIONS AS EIF4E INHIBITORS AND THE USES THEREOF” (Ribometrix, Inc., priority 2022, published 2024):
Like-named read-outs stand apart in the source and are kept apart here.

Legend:
[1] = tested on: COLO 205 colorectal tumor cells; assay: Tumor cell viability inhibition assay (CellTiter-Glo 2.0, 72 hours); type: cell-based; conditions: COLO 205 cell viability
Procedure, shortened: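 IC50 derived by 4-parameter fitting after normalizing luminescence to DMSO and max-inhibition wells. Compounds tested as 11 concentrations in 4-fold steps on COLO 205 cells seeded at 1500 per well in RPMI-1640/10% FBS; ATP content measured with CellTiter-Glo 2.0 after 72 h.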

[2] = tested on: cap-dependent translation in Flp-In-293 reporter cells; assay: Cellular cap-dependent translation inhibition assay (dual luciferase assay, DLA; Fluc/Rluc ratio, 24 hours); type: cell-based; conditions: dual luciferase assay, Flp-In-293 reporter cells, 24 hours, Fluc/Rluc ratio, read-out: DLA 205 IC50
human eIF4E protein = molecular target: T1, human eIF4E protein (Homo sapiens, UniProt P06730); assay: Biochemical competitive binding assay (TR-FRET competition, EDA-m7GDP-ATTO-647N probe); conditions: read-out: hEIF4E TR-FRET IC50
T1 construct: purchased Novus NBP-45314
T1 sequence (P06730 whole entry): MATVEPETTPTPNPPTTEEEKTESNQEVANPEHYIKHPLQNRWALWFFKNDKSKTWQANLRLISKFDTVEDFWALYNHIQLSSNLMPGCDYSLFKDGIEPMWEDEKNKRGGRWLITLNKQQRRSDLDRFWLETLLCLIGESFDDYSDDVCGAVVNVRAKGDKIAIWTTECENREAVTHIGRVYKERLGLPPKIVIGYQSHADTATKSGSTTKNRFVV
Procedure, shortened: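 IC50 values come from 4-parameter fits of the normalized 665/620 nm TR-FRET ratio. Compound was first incubated 15 min with 4 nM recombinant His-eIF4E bound to 2.5 nM Eu-anti-His antibody, then 15 min with 5 nM m7GDP-ATTO-647N tracer, in pH 7.5 HEPES buffer with 100 mM KCl, Tween-20 and BSA.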

[3] = tested on: cyclin D1 protein levels in COLO 205 cells; assay: Cyclin D1 cellular inhibition assay (HTRF, 6 hours); type: cell-based; conditions: 6 hours of compound treatment, Cyclin D1 protein levels by HTRF, read-out: COLO 205 6 h Cyclin D1 TR-FRET IC50
Procedure, shortened: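 COLO 205 cells in RPMI-1640 with 10% FBS treated 6 h with 11-point compound dilutions at 1% DMSO final. Lysates assayed for cyclin D1 by HTRF. Signal normalized to DMSO and maximum-inhibition controls, with IC50 from 4-parameter fit.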

| SMILES | IC50 ([1]; Homo sapiens, COLO 205, 72 h) | IC50 (human eIF4E protein) | IC50 [3] | IC50 [1] | IC50 ([3]; Homo sapiens, COLO 205, 6 h) | IC50 ([2]; Homo sapiens, Flp-In-293, 24 h) | IC50 [2] |
| --- | --- | --- | --- | --- | --- | --- | --- |
| Cc1cc(-c2cc(Cl)ccc2OCCn2c(C)nc3c(c2=O)CC(N(C)C)CC3)c2scc(C(=O)O)c2n1 (single isomer, unassigned) [Compound 13] | < 5 µM | < 100 nM | < 5 µM |  |  | < 1000 nM |  |
| Cc1cc(-c2cc(Cl)ccc2OCCn2c(C)nc3c(c2=O)CC(N(C)C)CC3)c2scc(C(=O)O)c2n1 (single isomer, unassigned) [Compound 14] |  | < 100 nM | > 20 µM | 5 to 20 µM |  |  | 1000 to 5000 nM |
| Cc1cc(-c2cc(Cl)ccc2OCCn2c(C)nc3c(c2=O)CC(N2CC4COCC4C2)CC3)c2scc(C(=O)O)c2n1 (single isomer, unassigned) [Compound 70] |  | < 100 nM |  |  | < 5 µM |  | < 1000 nM |
| Cc1cc(-c2cc(Cl)ccc2OCCn2c(C)nc3c(c2=O)CC(N(C)C2(C4CCC4)CC2)CC3)c2scc(C(=O)O)c2n1 (single isomer, unassigned) [Compound 242] | < 5 µM | < 100 nM |  |  | < 5 µM | < 1000 nM |  |
| Cc1cc(-c2cc(Cl)ccc2OCCn2c(C)nc3c(c2=O)CC(N(C)C2(C4CCC4)CC2)CC3)c2scc(C(=O)O)c2n1 (single isomer, unassigned) [Compound 243] |  | < 100 nM | 5 to 20 µM | 5 to 20 µM |  |  | 1000 to 5000 nM |
| Cc1sc2c(-c3cc(Cl)ccc3OCCn3c(C)nc4c(c3=O)CC(N(C)C3CC3)CC4)cn(C)c(=O)c2c1C(=O)O (single isomer, unassigned) [Compound 244] | > 20 µM | 100 to 500 nM |  |  | > 20 µM | > 5000 nM |  |
| Cc1cc(-c2cc(Cl)ccc2OCCn2c(C)nc3c(c2=O)CC(N(CC2CC(F)(F)C2)C2CC2)CC3)c2scc(C(=O)O)c2n1 (single isomer, unassigned) [Compound 257] | 5 to 20 µM | < 100 nM |  |  | 5 to 20 µM | < 1000 nM |  |
| Cc1cc(-c2cc(Cl)ccc2OCCn2c(C)nc3c(c2=O)CC(N(CC2CC(F)(F)C2)C2CC2)CC3)c2scc(C(=O)NS(C)(=O)=O)c2n1 (single isomer, unassigned) [Compound 260] | < 5 µM | < 100 nM |  |  | < 5 µM | < 1000 nM |  |
| Cc1cc(-c2cc(Cl)ccc2OCCn2c(C)nc3c(c2=O)CC(N(CC2CC(F)(F)C2)C2CC2)CC3)c2scc(C(=O)NS(C)(=O)=O)c2n1 (single isomer, unassigned) [Compound 261] |  | < 100 nM | 5 to 20 µM | < 5 µM |  |  | < 1000 nM |
| Cc1cc(-c2cc(Cl)ccc2OCCn2c(C)nc3c(c2=O)CC(N(CC2CC(F)(F)C2)C2CC2)CC3)c2scc(C(=O)O)c2n1 (single isomer, unassigned) [Compound 263] |  | < 100 nM | < 5 µM | < 5 µM |  |  | < 1000 nM |
| Cc1nc2c(c(=O)n1CC#Cc1ccc(Cl)cc1-c1ccnc3c(C(=O)O)csc13)C[C@H](N1CC[C@@H](F)C1)CC2 (single isomer, unassigned) [Compound 326] | < 5 µM | < 100 nM |  |  | < 5 µM | < 1000 nM |  |
| Cc1nc2c(c(=O)n1CCOc1ccc(Cl)cc1-c1cccc(C(=O)O)c1)CC(N(C)C)CC2 (stereo not drawn) [Compound 1, 3-[5-chloranyl-2-[2-[6-[di(methyl)amino]-2-methyl-4-oxidanylidene-5,6,7,8-tetrahydroquinazolin-3-yl]ethoxy]phenyl]benzoic acid] | 5 to 20 µM | < 100 nM |  |  | 5 to 20 µM | < 1000 nM |  |
| Cc1cc(-c2cc(Cl)ccc2OCCn2c(C)nc3c(c2=O)CC(N(C)C)CC3)c2scc(C(=O)O)c2n1 (stereo not drawn) [Compound 3, 7-[5-chloranyl-2-[2-[6-[di(methyl)amino]-2-methyl-4-oxidanylidene-5,6,7,8-tetrahydroquinazolin-3-yl]ethoxy]phenyl]-5-methyl-thieno[3,2-b]pyridine-3-carboxylic acid; 2,2,2-tris(fluorenyl)acetic acid] | < 5 µM | < 100 nM |  |  | < 5 µM | < 1000 nM |  |
| Cc1cc(-c2cc(Cl)ccc2OCCn2c(C)nc3c(c2=O)CC(N(C)CC2(C)COC2)CC3)c2scc(C(=O)O)c2n1 (stereo not drawn) [Compound 18] | < 5 µM | < 100 nM |  |  | < 5 µM | < 1000 nM |  |
| Cc1cc(-c2cc(Cl)ccc2OCCn2c(C)nc3c(c2=O)CC(N(C)C2CC2)CC3)c2scc(C(=O)O)c2n1 (stereo not drawn) [Compound 46] | < 5 µM | < 100 nM |  |  | < 5 µM | < 1000 nM |  |
| Cc1cc(-c2cc(Cl)ccc2OCCn2c(C)nc3c(c2=O)CC(N(C)C)CO3)c2scc(C(=O)O)c2n1 (stereo not drawn) [Compound 230] | 5 to 20 µM | < 100 nM |  |  | 5 to 20 µM |  |  |

More lines, main results first:

| IC50 ([1]; Homo sapiens, COLO 205, 72 h) | IC50 (human eIF4E protein) | IC50 [3] | IC50 [1] | IC50 ([3]; Homo sapiens, COLO 205, 6 h) | SMILES | IC50 ([2]; Homo sapiens, Flp-In-293, 24 h) | IC50 [2] |
| --- | --- | --- | --- | --- | --- | --- | --- |
| < 5 µM | < 100 nM |  |  | < 5 µM | CO[C@@H]1CCN([C@@H]2CCc3nc(C)n(CCOc4ccc(Cl)cc4-c4cc(C)nc5c(C(=O)O)csc45)c(=O)c3C2)C1 (single isomer, unassigned) [Compound 42] | < 1000 nM |  |
| < 5 µM | < 100 nM |  |  | < 5 µM | Cc1cc(-c2cc(Cl)ccc2OCCn2c(C)nc3c(c2=O)CC(N2CCCCC2)CC3)c2scc(C(=O)NS(C)(=O)=O)c2n1 (single isomer, unassigned) [Compound 241] | < 1000 nM |  |
|  | < 100 nM | 5 to 20 µM | 5 to 20 µM |  | Cc1cc(-c2cc(Cl)ccc2OCCn2c(C)nc3c(c2=O)CC(N2CCCCC2)CC3)c2scc(C(=O)NS(C)(=O)=O)c2n1 (single isomer, unassigned) [Compound 245] |  | < 1000 nM |
| < 5 µM | < 100 nM |  |  | < 5 µM | Cc1cc(-c2cc(Cl)ccc2OCCn2c(C)nc3c(c2=O)C[C@H](N2CC[C@@H](F)C2)CC3)c2scc(C(=O)O)c2n1 (single isomer, unassigned) [Compound 328] | < 1000 nM |  |
| < 5 µM | < 100 nM |  |  | < 5 µM | Cc1cc(-c2cc(Cl)ccc2OCCn2c(C)nc3c(c2=O)CC(N2CCCCC2)CC3)c2scc(C(=O)O)c2n1 (stereo not drawn) [Compound 11] | < 1000 nM |  |
| < 5 µM | < 100 nM |  |  | < 5 µM | Cc1cc(-c2cc(Cl)ccc2OCCn2c(C)nc3c(c2=O)CC(N2CCCCC2)CC3)c2scc(C(=O)NS(C)(=O)=O)c2n1 (stereo not drawn) [Compound 31] | < 1000 nM |  |
| < 5 µM | < 100 nM |  |  | < 5 µM | Cc1cc(-c2cc(Cl)ccc2OCCn2c(C)nc3c(c2=O)CC(N(C)C2CC2)CC3)c2scc(C(=O)NS(C)(=O)=O)c2n1 (stereo not drawn) [Compound 51] | < 1000 nM |  |
